Measured values from patent publication US20110020801A1, “Carboxylesterase-1 Polymorphisms and Methods of Use Therefor” (priority 2007, published 2011).
Like-named read-outs stand apart in the source and are kept apart here.

What was measured:
[1] = Pharmacokinetic study of orally administered racemic MPH in normal volunteers; assay type: in vivo, human; conditions: human, plasma
Protocol: Analysis of Pharmacokinetic, Hemodynamic, and Statistical Data. Standard pharmacokinetic analyses were applied to the MPH data using WinNonLin software (Pharsight, Mountainview, Calif.) and are described in a previous publication.^10 The AUC, Cmax, and t1/2 were analyzed using the Extreme Studentized Deviate (ESD) single-outlier procedure^12 to determine whether the parameter measurements for the slow metabolizer constituted true statistical outliers. For each parameter, the ESD procedure confirmed the measurement as an outlier at the p<0.01 level. Because this procedure is known to be conservative, the data from the aberrant metabolizer were reassessed using a similar procedure with respect to the normal participants only.

p.Asp260fs CES1 = molecular target: T1, p.Asp260fs CES1 (Homo sapiens, UniProt P23141); assay: MPH hydrolysis to ritalinic acid by S9 of cells expressing p.Asp260fs CES1 (HPLC); assay type: biochemical; conditions: S9 500 μg/ml, even at very high S9 concentration (2 mg/ml); 37° C., 2 h
T1 construct: a frameshift mutation that alters residues 260-299 and causes early truncation at a premature stop codon; expressed in transfected cells
T1 sequence (P23141 with tags, fused parts or gaps): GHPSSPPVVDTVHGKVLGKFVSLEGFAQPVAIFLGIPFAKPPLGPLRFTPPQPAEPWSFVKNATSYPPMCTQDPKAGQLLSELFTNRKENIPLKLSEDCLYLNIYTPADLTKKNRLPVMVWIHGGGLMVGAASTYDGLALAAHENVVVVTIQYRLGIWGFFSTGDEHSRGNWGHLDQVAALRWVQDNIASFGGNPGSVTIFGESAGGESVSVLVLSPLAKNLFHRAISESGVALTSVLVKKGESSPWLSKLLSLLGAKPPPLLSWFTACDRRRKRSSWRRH
Description: (§1) The desired plasmid was designed such that the recombinant CES1 would be expressed in mammalian cells with a V5-His tag to facilitate detection and purification. Additionally, another plasmid was generated by inserting a stop codon after CES1A1 gene to yield the constructs expressing CES1 without V5-His tag. […] Thus, only untagged CES1 and its associated mutants were used in the enzymatic hydrolysis study. Two constructs of CES1 mutations, p.Gly143Glu and p.Asp260fs, were generated using a site-directed mutagenesis assay. All constructs were subjected to DNA sequencing analysis to confirm that the desired plasmids were obtained. The identified CES1A1 plasmids (WT, p.Gly143Glu, and p.Asp260fs) were co-transfected with pOG44 plasmid at a ratio of 1:10 into Flp-In™-293 cells using […] (Invitrogen, Carlsbad, Calif.). Additionally, the self-ligated pcDNA5/FRT/V5-His-TOPO® vector was included as a vector control. Twenty-four hours after transfection, cells were washed with PBS and fresh complete medium (Dulbecco's modified Eagle's medium containing 10% fetal bovine serum) was added. […]
(§2) After attaining approximately 95% confluence, cells were rinsed and harvested in PBS containing 10 mM HEPES (pH 7.4). […] The protein concentration was determined using a Pierce BCA assay kit (Rockford, Ill.).
(§3) For the study of MPH hydrolysis, the reaction was conducted in 1.5 mL eppendorf tubes with a final S9 concentration of 0.5 mg/mL at a total volume of 100 μL. […] Concentrations of the primary phase I MPH metabolite produced via hydrolysis, ritalinic acid (RA), was determined utilizing an established HPLC method described below.
(§4) Thus, following the enzymatic assay, the values determined for spontaneous PNP and RA hydrolysis were subtracted from the total PNP and RA production. […] All collected data were fit to the Michaelis-Menten equation, and kinetic parameters were calculated using nonlinear regression analysis with Graphpad Prism software (Graphpad Software Inc., San Diego, Calif.) […]

WT CES1 = molecular target: T2, WT CES1 (Homo sapiens, UniProt P23141); assay: MPH hydrolysis to ritalinic acid by S9 of cells expressing WT CES1 (HPLC); assay type: biochemical; conditions: S9 0.5 mg/mL, 37° C., 2 hours, mean ± S.D. (n = 3), listed as d-isomer
T2 construct: inserting a stop codon after CES1A1 gene to yield the constructs expressing CES1 without V5-His tag; expressed in transfected cells
T2 sequence (P23141 18-567): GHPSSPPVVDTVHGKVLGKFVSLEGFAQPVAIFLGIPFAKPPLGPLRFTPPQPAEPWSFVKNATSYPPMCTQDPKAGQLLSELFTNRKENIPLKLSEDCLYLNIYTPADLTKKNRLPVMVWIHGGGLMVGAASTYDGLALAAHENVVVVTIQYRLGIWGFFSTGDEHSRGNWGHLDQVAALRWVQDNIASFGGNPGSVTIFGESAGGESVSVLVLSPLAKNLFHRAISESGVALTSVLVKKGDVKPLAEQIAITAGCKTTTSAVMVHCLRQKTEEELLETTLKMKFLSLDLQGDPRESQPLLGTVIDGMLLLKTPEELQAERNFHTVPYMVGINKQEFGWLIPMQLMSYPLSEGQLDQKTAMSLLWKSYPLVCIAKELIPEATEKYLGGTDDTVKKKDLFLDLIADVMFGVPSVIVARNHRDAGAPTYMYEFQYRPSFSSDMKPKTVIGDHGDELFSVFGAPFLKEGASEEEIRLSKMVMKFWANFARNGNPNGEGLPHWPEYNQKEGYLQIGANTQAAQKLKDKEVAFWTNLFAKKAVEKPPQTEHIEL
Description: as §1, §2, §3, §4

[2] = mean ±SD of all other subjects, single oral 0.3 mg/kg racemic MPH

SMILES: COC(=O)[C@H](c1ccccc1)[C@H]1CCCCN1 [d-MPH, methylphenidate]
- AUC ([1]; oral, 0.3 mg/kg, Table 1, 19 study peers, read-out: AUC, Mean (±SD)): 0.0786 µg·h/mL
- Cmax ([1]; oral, 0.3 mg/kg, Table 1, 19 study peers, read-out: Cmax, Mean (±SD)): 0.0138 µg/mL
- half-life ([1]; oral, 0.3 mg/kg, Table 1, 19 study peers, read-out: t1/2, Mean (±SD) (converted)): 3 h
- Tmax [1, 2]: 2.3 ± 0.8 h
- half-life ([1]; mean ±SD of all other subjects, single oral 0.3 mg/kg racemic MPH, read-out: t1/2 (converted)): 2.8 ± 0.4 h
- AUC(0-inf) [1, 2]: 0.083 ± 0.022 µg·h/mL
- Cmax ([1]; mean ±SD of all other subjects, single oral 0.3 mg/kg racemic MPH, read-out: Cmax): 0.015 ± 0.003 µg/mL
- AUC ([1]; male, oral, 0.3 mg/kg, Table 1, aberrant metabolizer, read-out: AUC, Outlier): 0.209 µg·h/mL
- Cmax ([1]; male, oral, 0.3 mg/kg, Table 1, aberrant metabolizer, read-out: Cmax, Outlier): 0.0367 µg/mL
- half-life ([1]; male, oral, 0.3 mg/kg, Table 1, aberrant metabolizer, read-out: t1/2, Outlier (converted)): 5.4 h
- Tmax ([1]; male, slow metabolizer, single oral 0.3 mg/kg racemic MPH): 3 h
- half-life ([1]; male, slow metabolizer, single oral 0.3 mg/kg racemic MPH, read-out: t1/2 (converted)): 5.4 h
- AUC(0-inf) ([1]; male, slow metabolizer (heterozygous for p.Gly143Glu and p.Asp260fs), single oral 0.3 mg/kg racemic MPH): 0.209 µg·h/mL
- Cmax ([1]; male, slow metabolizer, single oral 0.3 mg/kg racemic MPH, read-out: Cmax): 0.037 µg/mL
- catalytic activity towards MPH hydrolysis (p.Asp260fs CES1): failed to show any hydrolytic activity
- Vmax (WT CES1): 177.2 pmole/min/mg protein
